Entries after “also recorded” stand apart in the source; their conditions may differ.
Experiments:
PLTP expression = test: Northern blot analysis of PLTP expression in HepG2 cells; format: cell-based, human; details: for induction of PLTP expression: 500 nM, 24 hrs (FIG. 5)
Description: Dose response induction of PLTP was performed in HepG2 cells for 24 hrs. RNAs isolated were separated on agarose gel and then transferred to nitrocellulose filters for hybridization with a labeled full-length PLTP cDNA probe. […] Lane 1, control (untreated); 2, 1 nM; 3, 20 nM; 4, 100 nM; 5, 500 nM; and 6, 1,000 nM topotecan expression. […] This may be a result of the inhibition of transcription by topotecan at the higher dosage.
HepG2 cells were treated with the indicated drugs (500 nM) for 24 hrs. RNAs were then harvested and fractionated on agarose gel and then transferred to nitrocellulose filters for hybridization with a full length PLTP cDNA probe.
We first examined topotecan-induced PLTP expression in an independent dose response study by Northern blot analysis. […] This may be a result of the inhibition of transcription by topotecan at the higher dosage. […]

[1] = system: cultured tumor cell lines; details: Table 1
Source text: To determine whether the induction of PLTP expression is topotecan specific, we evaluated the effects of camptothecin and some of its derivatives, and compared them against some protoberberines, which are a new class of organic cations that are dual poisons of topoisomerases I and II (3–5). Berberine is an isoquinoline plant alkaloid.

PLTP promoter [2] = test: PLTP promoter-luciferase reporter, transient transfection in HepG2 cells (dual luciferase assay); format: cell-based, human; details: 24 hrs
Description: FIGS. 6A and 6B depict the transactivation of the PLTP promoter by topotecan. FIG. 6A is a schematic drawing of the PLTP gene promoter-luciferase reporter construct. The promoter was PCR amplified from a BAC clone containing the genomic sequence for the human PLTP gene. FIG. 6B graphically presents the results calibrated in terms of luciferase activity, of a study where HepG2 cells were transfected with the PLTP promoter-luciferase reporter and were then treated with various doses of topotecan for 24 hrs. Cell extracts were harvested for the dual luciferase assay (Promega, Wis.). The relative luciferase activity has been normalized with the internal control renella luciferase activity cotransfected with the promoter reporter construct, to monitor transfection efficiency.
We also determined whether induction of PLTP gene expression by topotecan is transcriptionally activated. Approximately 1.5 kb of the PLTP promoter sequence was obtained by the polymerase chain reaction (PCR) amplification of a human BAC clone (RP3-337018) containing the genomic sequence of PLTP. The PCR product consisting of the promoter region was sequenced verified and then subcloned into a luciferase reporter vector pGL2-Basic vector (Promega, Wis.) (FIG. 6A). […]

[3] = system: phospholipid transfer protein (PLTP) gene; test: DNA microarray expression profiling of topotecan-treated HepG2 cells; format: cell-based, human
Description: (§1) FIG. 1 is a DNA microarray presenting expression profiling of topotecan induced HepG2 cells. HepG2 cells were treated with 500 nM of topotecan in time course study for the indicated time points in the figure. RNAs were isolated, labeled and hybridized to the array. Scan image were analyzed using the Pathway and the Cluster softwares. The results of cluster analysis are shown in TreeView. Transition of color to red indicates the upregulation, and to green is the downregulation of gene expression.
FIG. 2 is a scanned image of the PLTP gene induced by topotecan. HepG2 cells were treated with topotecan in time-course and dose response studies. The microarrays were exposed to phosphorimage screen and the scanned images were analyzed with the Pathway software. Enlarged scanned images for the induction of PLTP gene with time and dose are shown.
as §1, with “3” for “1”, “various concentrations” for “500 nM”, “topotecan.” for “topotecan in time course study for the indicated time points in the figure.”, “images” for “image”, “TreeView. A representative set of genes with altered expression was plotted in the line graphs.” for “TreeView.”
We have used DNA microarray to monitor the expression profiles of cells in response to anticancer drug treatments, and also comparing these profiles to those obtained from cancer cells that have been selected for resistance to the corresponding agents. […]
The HepG2 cells were either transiently treated with 500 nM of topotecan for various times (1–24 hrs), or with various doses of topotecan (1–1000 nM) for 24 hrs. […] The scanned images were processed and analyzed on the Pathways™ software. Tab delimited files generated from Pathways™ were imported into Microsoft Excel® for sorting by fold changes and intensity levels (radioactivity, cpm).

PLTP promoter [4] = format: cell-based, human; details: HepG2/PLTPpLuc; for specificity of induction of PLTP promoter activity: 24 hours (FIG. 14)
Source text: FIG. 11 is a schematic drawing of the promoter of the phospholipid transfer protein (PLTP) gene. A 1.6 kb fragment of the PLTP gene promoter derived from a BAC clone was PCR amplified and then subcloned into a modified pXP1 luciferase reporter plasmid vector. The modified vector contained the neomycin resistance marker gene.
HepG2 cells were permanently transfected with the construct shown in FIG. 11, and selected for resistance to G418, an aminoglycoside antibiotic. Clone 1, a G418 resistant cell line isolated from the selection, designated HepG2/PLTPpLuc, was utilized for testing the effect of topotecan on induction of PLTP promoter activity. The transfectant cell line, HepG2/PLTPpLuc, was treated with topotecan (500 nM) for approximately 24 hours. Cell extracts were obtained at the end of incubation and the luciferase assay was performed with them. The luciferase activity of the topotecan treated cells (+) was plotted relative to the control (−).
FIG. 13 illustrates the time course analysis of induction of PLTP promoter activity by topotecan in HepG2/PLTPpLuc cells. The HepG2/PLTPpLuc cells were treated with 500 nM of topotecan. Cell extracts were obtained at various time points following treatment with topotecan (0, 4, 8, 12, 16, and 24 hours) and assayed for luciferase activity, which was plotted as a function of time.
The HepG2/PLTPpLuc cells were treated with either topotecan, taxol, or melphalan for 24 hours. Cell extracts were then obtained for the luciferase assay.
The luciferase reporter plasmid was constructed by cloning the PLTP promoter derived from a BAC clone into the pXP2 luciferase reporter vector. A neomycin selectable marker gene driven by the CMV early promoter was further subcloned into the PLTP-luciferase reporter plasmid (FIG. 11).
Approximately 10 μg of the PLTP-luciferase reporter plasmid was transfected using lipofectamine into HepG2 cells for about 4 hrs. Cells were washed and then further cultured and selected in the presence of 1.6 mg/ml of G418 for neomycin resistance. Media were changed every 3 days with fresh G418 added at the above concentration. Approximately 14 days later, colonies that emerged from the selection were picked using cloning cylinders and the clones were transferred to 24-well cluster dishes for further culturing and selection.
At confluence, cells were next transferred to 12-well dishes and aliquots were also transferred to 24-well dishes for screening with topotecan for induction of the PLTP promoter activity. Luciferase assay was performed using a standard luciferase assay kit from Promega.

Structure (SMILES)	induction of PLTP expression (PLTP expression)	Cytotoxicity [1]	specificity of induction of PLTP promoter activity (PLTP promoter [4])	further results
CCC1(O)C(=O)OCc2c1cc1n(c2=O)Cc2cc3c(N)c4c(cc3nc2-1)OCO4 [9-NH2-10,11-MD-CPT(S)]	induced	Active	–	–
CCc1c2c(nc3ccc(OC(=O)N4CCC(N5CCCCC5)CC4)cc13)-c1cc3c(c(=O)n1C2)COC(=O)[C@]3(O)CC [Irinotecan (CPT-11), Irinotecan]	failed to activate PLTP expression	–	–	–
CC[C@@]1(O)C(=O)OCc2c1cc1n(c2=O)Cc2cc3c(CN(C)C)c(O)ccc3nc2-1 [topotecan]	induced	–	specific for topotecan	PLTP expression at the highest dose (PLTP expression; 1 μM, 24 hrs): reversed; induction of PLTP expression, dose response (PLTP expression; 1–1000 nM, 24 hrs): dose dependent induction; also recorded: elevated with increasing doses; PLTP promoter activity at the highest dose (PLTP promoter [2]; 1 μM): inhibition of the promoter activity; transactivation of PLTP promoter, dose response (PLTP promoter [2]; various doses): transactivated by topotecan dose-dependently; induction of PLTP gene expression ([3]; 500 nM topotecan, after 24 hrs of exposure): approximately 20 fold; onset of PLTP expression after exposure ([3]; 500 nM topotecan, time course): 10 to 15 h; induction of PLTP expression, dose response ([3]; 1–1000 nM, 24 hrs): elevated in a dose dependent manner; induction of PLTP promoter activity (PLTP promoter [4]; 500 nM, approximately 24 hours (FIG. 12)): approximately 20 fold
CC(=O)O[C@H]1C(=O)[C@@]2(C)[C@H]([C@H](OC(=O)c3ccccc3)[C@]3(O)C[C@H](OC(=O)[C@H](O)[C@@H](NC(=O)c4ccccc4)c4ccccc4)C(C)=C1C3(C)C)[C@]1(OC(C)=O)CO[C@@H]1C[C@@H]2O [taxol]	–	–	no significant stimulation	–
CC[C@@]1(O)C(=O)OCc2c1cc1n(c2=O)Cc2cc3c(N)cccc3nc2-1 [9-NH2-CPT(S)]	induced	Active	–	–
CC[C@]1(O)C[C@@H]2CN(CCc3c([nH]c4ccccc34)[C@@](C(=O)OC)(c3cc4c(cc3OC)N(C)[C@H]3[C@@](O)(C(=O)OC)[C@H](OC(C)=O)[C@]5(CC)C=CCN6CC[C@]43[C@@H]65)C2)C1 [vinblastine]	failed to induced PLTP gene expression; also recorded: did not induce PLTP expression	–	–	–
N[C@@H](Cc1ccc(N(CCCl)CCCl)cc1)C(=O)O [melphalan]	–	–	no significant stimulation	–
CC[C@@]1(O)C(=O)OCc2c1cc1n(c2=O)Cc2cc3ccccc3nc2-1 [Camptothecin (CPT), Camptothecin]	induced	Active	–	–
CCC1(O)C(=O)OCc2c1cc1n(c2=O)Cc2cc3c(N)c4c(cc3nc2-1)OCO4 [9-NH2-10,11-MD-CPT(R)]	–	Inactive	–	–
